Structures can show the parent of a compound that is named as a salt.

Series [1] concerns Pneumocystis carinii. The experiment in a line: Pneumocystis carinii pneumonia in immunosuppressed rats. Particulars: eliminating P. carinii cysts in four days, dexasone-immunosuppressed rats, microscopic analysis of stained lung slides. The format is in vivo, Sprague-Dawley rats. The method, then:
In a representative study, the effectiveness of Compound A-1a was determined. Sprague-Dawley rats (weighing approximately 250 grams) were immunosuppressed with dexasone in the drinking water (2.0 mg/L) and maintained on a low protein diet for five weeks to induce the development of pneumocystis pneumonia from a latent infection. […] Six rats (weighing approximately 150 grams) were injected twice daily for four days intravenously (I.V.) via the tail vein with Compound A-1a in 0.25 ml of vehicle (distilled water). A vehicle control was also carried out. All animals continued to receive dexasone in the drinking water and low protein diet during the treatment period. At the completion of the treatment, all animals were sacrificed, the lungs were removed and processed, and the extent of disease determined by microscopic analysis of stained slides.
In a similar experiment, except that the rats were injected intraperitoneally (I.P.) twice daily for four days, the animals were sacrificed, the lungs removed and processed, and the extent of disease determined by microscopic analysis of stained slides.

The nature of series [2]: Solubility in water. The format is physicochemical.

As for `CCC(C)CC(C)CCCCCCCCC(=O)NC1CC(O)CNC(=O)C2C(O)CCN2C(=O)C(C(O)CC(N)=O)NC(=O)C(C(O)C(O)c2ccc(OP(=O)(O)O)cc2)NC(=O)C2CC(O)CN2C(=O)C(C(C)O)NC1=O` (stereo not shown) [Compound A-2a, 1-[4-hydroxy-N2-(10,12-dimethyl-1-oxotetradecyl)-ornithine]-4-[3-hydroxy-4′-O-phosphoryl-homotyrosine]-5-[3-hydroxyglutamine]-6-[3-hydroxyproline]echinocandin B disodium salt], in series [1] (injected intraperitoneally (I.P.) twice daily for four days), the ED₉₀ entry is on record as “approximately 0.6 mg/kg”. The solubility in series [2] is > 85 mg/mL.

Regarding `CCC(C)CC(C)CCCCCCCCC(=O)NC1CC(O)C(O)NC(=O)C2C(O)CCN2C(=O)C(C(O)CC(N)=O)NC(=O)C(C(O)C(O)c2ccc(OP(=O)(O)O)cc2)NC(=O)C2CC(O)CN2C(=O)C(C(C)O)NC1=O` (stereo not shown) [Compound A-1a, 1-[4,5-dihydroxy-N2-(10,12-dimethyl-1-oxotetradecyl)-ornithine-4-[3,4-dihydroxy-4′-O-phosphoryl-homotyrosine]-5-[3-hydroxyglutamine]-6-[3-hydroxyproline]-echinocandin B disodium salt], the ED₉₀ result in series [1] (injected twice daily for four days intravenously (I.V.) via the tail vein) is reported as “approximately 0.6 mg/kg”. For the same molecule, the solubility in water in series [2] is > 40 mg/mL.

One may read the solubility as how much of the substance goes into solution per volume. Lower therefore signals a poorly soluble substance.

The values are drawn from patent publication EP0448343A2, “Lipopeptide derivatives” (MERCK & CO. INC., priority 1990, dated 1991).
